Assay results from ChEMBL document CHEMBL4028801, “A multifactorial approach to hepatobiliary transporter assessment enables improved therapeutic compound development” (Toxicol Sci, 2013).

Legend:
[1] = Ratio of drug concentration at steady state in human at 100 to 200 mg, po QD after 24 hrs to IC50 for human BSEP overexpressed in Sf9 insect cells; assay type: ADME, organism-based; conditions: in vivo
[2] = biological target: T1, ATP-binding cassette sub-family C member 4 (Homo sapiens, UniProt O15439); assay: Inhibition of human MRP4 overexpressed in Sf9 cell membrane vesicles assessed as uptake of [3H]-estradiol-17beta-D-glucuronide in presence of ATP and GSH measured after 20 mins by membrane vesicle transport assay; assay type: ADME, cell-based
T1 sequence (O15439 whole entry): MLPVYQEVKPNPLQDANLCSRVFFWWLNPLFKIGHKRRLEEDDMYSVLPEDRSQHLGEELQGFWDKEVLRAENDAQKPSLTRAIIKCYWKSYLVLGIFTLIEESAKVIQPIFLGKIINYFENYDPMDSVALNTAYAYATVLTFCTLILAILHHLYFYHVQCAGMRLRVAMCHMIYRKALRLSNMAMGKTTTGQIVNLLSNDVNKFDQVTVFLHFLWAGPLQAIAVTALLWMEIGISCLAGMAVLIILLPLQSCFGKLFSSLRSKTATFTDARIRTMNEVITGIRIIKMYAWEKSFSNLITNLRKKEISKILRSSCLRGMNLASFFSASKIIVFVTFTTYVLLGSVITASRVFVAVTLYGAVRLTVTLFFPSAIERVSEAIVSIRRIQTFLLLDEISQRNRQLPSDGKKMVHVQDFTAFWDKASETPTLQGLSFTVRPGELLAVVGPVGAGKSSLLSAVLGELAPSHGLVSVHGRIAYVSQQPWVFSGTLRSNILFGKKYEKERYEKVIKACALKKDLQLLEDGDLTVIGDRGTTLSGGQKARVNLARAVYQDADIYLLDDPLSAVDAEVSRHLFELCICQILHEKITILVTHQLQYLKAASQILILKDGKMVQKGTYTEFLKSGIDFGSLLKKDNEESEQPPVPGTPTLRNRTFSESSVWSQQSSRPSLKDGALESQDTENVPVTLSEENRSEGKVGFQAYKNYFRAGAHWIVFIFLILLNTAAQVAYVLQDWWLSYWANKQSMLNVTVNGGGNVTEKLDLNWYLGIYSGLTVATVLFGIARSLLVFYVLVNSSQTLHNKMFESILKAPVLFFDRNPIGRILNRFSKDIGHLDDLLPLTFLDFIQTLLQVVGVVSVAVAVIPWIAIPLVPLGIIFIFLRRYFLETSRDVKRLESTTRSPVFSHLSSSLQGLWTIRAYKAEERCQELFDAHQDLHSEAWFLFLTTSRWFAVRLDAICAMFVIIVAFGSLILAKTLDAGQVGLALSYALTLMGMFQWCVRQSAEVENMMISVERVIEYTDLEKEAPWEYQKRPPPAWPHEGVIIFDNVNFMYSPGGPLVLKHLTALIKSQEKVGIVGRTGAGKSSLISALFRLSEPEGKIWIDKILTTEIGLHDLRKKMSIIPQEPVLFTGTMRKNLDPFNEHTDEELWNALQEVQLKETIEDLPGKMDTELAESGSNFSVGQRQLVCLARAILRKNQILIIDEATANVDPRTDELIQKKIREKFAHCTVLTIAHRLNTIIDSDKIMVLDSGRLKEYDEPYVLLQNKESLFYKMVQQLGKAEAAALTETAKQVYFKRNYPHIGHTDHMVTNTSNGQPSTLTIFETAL

[3] = Drug concentration at steady state in human at 100 to 200 mg, po QD after 24 hrs; assay type: ADME, organism-based; conditions: in vivo, read-out: Css
[4] = AUC in human at 100 to 200 mg, po QD after 24 hrs; assay type: ADME, organism-based; conditions: in vivo
[5] = biological target: ATP-binding cassette sub-family C member 2 (Homo sapiens, UniProt Q92887); assay: Inhibition of human MRP2 overexpressed in Sf9 cell membrane vesicles assessed as uptake of [3H]-estradiol-17beta-D-glucuronide in presence of ATP and GSH measured after 20 mins by membrane vesicle transport assay
[6] = Ratio of drug concentration at steady state in human at 100 to 200 mg, po QD after 24 hrs to IC50 for human MRP2 overexpressed in Sf9 insect cells; assay type: ADME, organism-based; conditions: in vivo
[7] = Ratio of drug concentration at steady state in human at 100 to 200 mg, po QD after 24 hrs to IC50 for human MRP4 overexpressed in Sf9 insect cells; assay type: ADME, organism-based; conditions: in vivo
[8] = biological target: ATP-binding cassette sub-family C member 3 (Homo sapiens, UniProt O15438); assay: Inhibition of human MRP3 overexpressed in Sf9 insect cell membrane vesicles assessed as uptake of [3H]-estradiol-17beta-D-glucuronide in presence of ATP and GSH measured after 10 mins by membrane vesicle transport assay; assay type: ADME, cell-based
[9] = AUC in human at 400 to 600 mg, po QD after 24 hrs; assay type: ADME, organism-based; conditions: in vivo
[10] = Drug concentration at steady state in human at 400 to 600 mg, po QD after 24 hrs; assay type: ADME, organism-based; conditions: in vivo, read-out: Css
[11] = Ratio of drug concentration at steady state in human at 60 to 100 mg/m2, iv via infusion for 1 hr every 3 weeks measured after 1 hr to IC50 for human BSEP overexpressed in Sf9 insect cells; assay type: ADME, organism-based
[12] = Drug concentration at steady state in human at 60 to 100 mg/m2, iv via infusion for 1 hr every 3 weeks measured after 1 hr; assay type: ADME, organism-based; conditions: in vivo, read-out: Css
[13] = AUC in human at 60 to 100 mg/m2, iv via infusion for 1 hr every 3 weeks measured after 1 hr; assay type: ADME, organism-based; set-up: time < 1 hr, route intravenous; conditions: in vivo
Bile salt export pump = Bile salt export pump (Homo sapiens, UniProt O95342); assay: Inhibition of human BSEP overexpressed in Sf9 cell membrane vesicles assessed as uptake of [3H]-taurocholate in presence of ATP measured after 15 to 20 mins by membrane vesicle transport assay; assay type: ADME, cell-based
[14] = Drug concentration at steady state in human at 300 to 600 mg, po QD after 24 hrs; assay type: ADME, organism-based; conditions: in vivo, read-out: Css
[15] = Ratio of drug concentration at steady state in human at 300 to 600 mg, po QD after 24 hrs to IC50 for human MRP4 overexpressed in Sf9 insect cells; assay type: ADME, organism-based; conditions: in vivo
[16] = Ratio of drug concentration at steady state in human at 300 to 600 mg, po QD after 24 hrs to IC50 for human BSEP overexpressed in Sf9 insect cells; assay type: ADME, organism-based; conditions: in vivo
[17] = AUC in human at 300 to 600 mg, po QD after 24 hrs; assay type: ADME, organism-based; conditions: in vivo
[18] = Ratio of drug concentration at steady state in human at 400 mg, po BID for 5 to 10 days after 12 hrs to IC50 for human MRP4 overexpressed in Sf9 insect cells; assay type: ADME, organism-based; conditions: in vivo
[19] = Ratio of drug concentration at steady state in human at 400 mg, po BID for 5 to 10 days after 12 hrs to IC50 for human BSEP overexpressed in Sf9 insect cells; assay type: ADME, organism-based; conditions: in vivo
[20] = AUC in human at 400 mg, po BID for 5 to 10 days after 12 hrs; assay type: ADME, organism-based; set-up: dose 400 mg, time < 12 hr, route oral; conditions: in vivo
[21] = Drug concentration at steady state in human at 400 mg, po BID for 5 to 10 days after 12 hrs; assay type: ADME, organism-based; conditions: in vivo, read-out: Css

ATP-binding cassette sub-family C member 3, sequence (O15438 whole entry): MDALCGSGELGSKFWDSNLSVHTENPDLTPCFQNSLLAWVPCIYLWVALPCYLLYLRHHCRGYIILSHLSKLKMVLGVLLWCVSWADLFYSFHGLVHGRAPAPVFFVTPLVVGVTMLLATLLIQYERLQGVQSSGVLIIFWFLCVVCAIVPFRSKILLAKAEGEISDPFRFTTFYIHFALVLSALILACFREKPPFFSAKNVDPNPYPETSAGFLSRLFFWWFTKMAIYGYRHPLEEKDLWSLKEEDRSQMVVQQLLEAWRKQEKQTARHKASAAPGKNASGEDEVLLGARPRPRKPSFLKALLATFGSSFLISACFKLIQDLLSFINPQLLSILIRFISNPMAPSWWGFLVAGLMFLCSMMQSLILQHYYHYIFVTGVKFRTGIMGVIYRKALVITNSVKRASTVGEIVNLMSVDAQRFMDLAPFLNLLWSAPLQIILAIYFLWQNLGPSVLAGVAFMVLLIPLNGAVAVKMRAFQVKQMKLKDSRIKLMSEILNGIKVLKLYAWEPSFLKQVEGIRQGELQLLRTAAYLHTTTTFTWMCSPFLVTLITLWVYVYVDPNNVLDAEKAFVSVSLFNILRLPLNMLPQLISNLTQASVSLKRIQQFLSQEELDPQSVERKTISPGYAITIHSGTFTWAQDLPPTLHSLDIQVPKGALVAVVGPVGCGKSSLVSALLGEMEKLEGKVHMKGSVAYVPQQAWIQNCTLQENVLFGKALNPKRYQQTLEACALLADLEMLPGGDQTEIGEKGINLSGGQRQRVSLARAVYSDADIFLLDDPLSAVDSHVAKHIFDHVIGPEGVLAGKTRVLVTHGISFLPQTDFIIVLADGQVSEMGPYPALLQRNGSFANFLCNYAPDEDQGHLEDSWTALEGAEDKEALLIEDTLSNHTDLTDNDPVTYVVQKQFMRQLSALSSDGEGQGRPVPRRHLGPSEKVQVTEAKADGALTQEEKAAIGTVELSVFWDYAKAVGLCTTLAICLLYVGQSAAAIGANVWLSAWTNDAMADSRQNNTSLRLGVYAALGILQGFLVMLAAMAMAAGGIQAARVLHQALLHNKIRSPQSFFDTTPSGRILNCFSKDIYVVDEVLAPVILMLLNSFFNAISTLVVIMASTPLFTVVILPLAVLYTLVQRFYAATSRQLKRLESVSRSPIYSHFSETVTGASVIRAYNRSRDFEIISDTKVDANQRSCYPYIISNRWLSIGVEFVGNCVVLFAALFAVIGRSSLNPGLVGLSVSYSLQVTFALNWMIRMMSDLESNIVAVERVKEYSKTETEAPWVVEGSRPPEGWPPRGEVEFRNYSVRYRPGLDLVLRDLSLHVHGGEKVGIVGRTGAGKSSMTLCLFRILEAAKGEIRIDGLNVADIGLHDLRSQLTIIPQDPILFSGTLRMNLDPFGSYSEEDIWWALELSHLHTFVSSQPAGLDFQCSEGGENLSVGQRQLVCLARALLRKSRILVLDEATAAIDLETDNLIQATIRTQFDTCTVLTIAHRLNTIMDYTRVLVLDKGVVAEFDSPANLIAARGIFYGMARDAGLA
ATP-binding cassette sub-family C member 2, sequence (Q92887 whole entry): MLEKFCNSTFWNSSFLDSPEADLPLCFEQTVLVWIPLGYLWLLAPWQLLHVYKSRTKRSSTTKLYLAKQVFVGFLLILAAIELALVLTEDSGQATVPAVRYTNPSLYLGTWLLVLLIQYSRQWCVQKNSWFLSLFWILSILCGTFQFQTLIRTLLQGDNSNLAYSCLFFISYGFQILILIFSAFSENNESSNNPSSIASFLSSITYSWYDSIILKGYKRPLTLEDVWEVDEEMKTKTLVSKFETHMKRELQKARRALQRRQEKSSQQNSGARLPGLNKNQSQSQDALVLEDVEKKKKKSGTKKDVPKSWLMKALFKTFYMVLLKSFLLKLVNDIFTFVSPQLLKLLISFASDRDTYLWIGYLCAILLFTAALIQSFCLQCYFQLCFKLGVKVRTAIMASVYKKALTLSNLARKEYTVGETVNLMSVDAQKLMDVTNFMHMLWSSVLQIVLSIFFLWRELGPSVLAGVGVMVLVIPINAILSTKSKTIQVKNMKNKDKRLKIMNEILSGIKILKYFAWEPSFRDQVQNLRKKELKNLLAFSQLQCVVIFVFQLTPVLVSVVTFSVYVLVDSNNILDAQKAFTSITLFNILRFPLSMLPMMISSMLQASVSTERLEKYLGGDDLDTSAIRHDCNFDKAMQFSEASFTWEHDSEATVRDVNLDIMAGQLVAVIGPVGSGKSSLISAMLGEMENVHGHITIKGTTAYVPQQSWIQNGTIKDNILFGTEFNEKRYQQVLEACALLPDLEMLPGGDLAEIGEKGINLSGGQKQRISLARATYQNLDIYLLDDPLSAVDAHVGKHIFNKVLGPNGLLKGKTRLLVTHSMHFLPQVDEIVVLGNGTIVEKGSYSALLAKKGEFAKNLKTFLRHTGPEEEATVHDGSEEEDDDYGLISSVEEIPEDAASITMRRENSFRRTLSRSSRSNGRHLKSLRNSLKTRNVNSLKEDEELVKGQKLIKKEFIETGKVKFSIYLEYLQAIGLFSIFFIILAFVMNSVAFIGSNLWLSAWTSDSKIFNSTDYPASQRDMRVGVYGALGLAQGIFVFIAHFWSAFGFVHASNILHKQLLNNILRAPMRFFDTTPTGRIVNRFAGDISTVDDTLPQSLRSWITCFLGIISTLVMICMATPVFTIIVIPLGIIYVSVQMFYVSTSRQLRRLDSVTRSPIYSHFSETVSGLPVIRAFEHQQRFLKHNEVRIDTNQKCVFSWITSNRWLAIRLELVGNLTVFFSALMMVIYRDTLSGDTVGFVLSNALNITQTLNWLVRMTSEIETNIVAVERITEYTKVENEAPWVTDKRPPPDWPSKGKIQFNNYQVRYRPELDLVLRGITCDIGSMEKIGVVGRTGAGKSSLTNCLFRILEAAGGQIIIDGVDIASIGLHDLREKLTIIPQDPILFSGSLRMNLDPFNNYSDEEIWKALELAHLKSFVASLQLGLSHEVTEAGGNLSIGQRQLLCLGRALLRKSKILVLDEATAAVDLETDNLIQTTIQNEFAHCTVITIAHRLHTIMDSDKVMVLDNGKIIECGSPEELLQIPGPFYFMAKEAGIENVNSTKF
Bile salt export pump, sequence (O95342 whole entry): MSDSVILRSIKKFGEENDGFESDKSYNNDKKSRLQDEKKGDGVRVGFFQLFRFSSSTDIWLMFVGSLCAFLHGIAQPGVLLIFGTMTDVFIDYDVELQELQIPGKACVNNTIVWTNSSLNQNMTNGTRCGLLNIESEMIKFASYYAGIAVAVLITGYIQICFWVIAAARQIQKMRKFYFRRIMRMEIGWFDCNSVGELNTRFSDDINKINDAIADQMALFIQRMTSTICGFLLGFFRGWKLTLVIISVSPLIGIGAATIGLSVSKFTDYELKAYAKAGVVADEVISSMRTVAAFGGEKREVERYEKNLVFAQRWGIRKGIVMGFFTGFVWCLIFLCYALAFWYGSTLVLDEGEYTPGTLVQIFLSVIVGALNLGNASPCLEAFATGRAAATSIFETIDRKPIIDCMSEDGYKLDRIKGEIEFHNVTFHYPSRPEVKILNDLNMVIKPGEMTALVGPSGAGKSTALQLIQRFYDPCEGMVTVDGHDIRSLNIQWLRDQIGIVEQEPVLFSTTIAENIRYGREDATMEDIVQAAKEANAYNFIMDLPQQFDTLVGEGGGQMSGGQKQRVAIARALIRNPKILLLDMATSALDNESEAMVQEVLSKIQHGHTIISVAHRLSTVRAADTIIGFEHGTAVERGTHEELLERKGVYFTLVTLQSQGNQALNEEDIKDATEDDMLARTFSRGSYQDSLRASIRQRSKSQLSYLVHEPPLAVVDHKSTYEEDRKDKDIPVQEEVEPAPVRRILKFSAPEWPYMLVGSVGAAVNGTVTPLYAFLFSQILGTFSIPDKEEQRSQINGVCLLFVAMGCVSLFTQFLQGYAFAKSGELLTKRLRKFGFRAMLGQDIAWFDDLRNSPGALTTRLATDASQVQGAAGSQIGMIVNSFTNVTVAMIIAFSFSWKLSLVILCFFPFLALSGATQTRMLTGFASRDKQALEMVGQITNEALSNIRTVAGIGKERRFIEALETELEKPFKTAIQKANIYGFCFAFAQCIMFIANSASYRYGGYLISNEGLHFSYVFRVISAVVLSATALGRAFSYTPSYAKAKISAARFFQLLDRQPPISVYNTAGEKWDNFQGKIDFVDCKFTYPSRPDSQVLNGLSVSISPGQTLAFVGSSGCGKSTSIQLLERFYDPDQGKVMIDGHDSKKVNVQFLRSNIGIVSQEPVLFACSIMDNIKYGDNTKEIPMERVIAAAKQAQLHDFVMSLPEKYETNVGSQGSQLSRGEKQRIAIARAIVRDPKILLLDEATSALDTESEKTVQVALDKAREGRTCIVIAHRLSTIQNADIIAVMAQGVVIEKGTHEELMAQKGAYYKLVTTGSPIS

## CCc1oc2ccccc2c1C(=O)c1cc(Br)c(O)c(Br)c1 [BENZBROMARONE]
[1]
  Ratio: 0.107
[2]
  IC50: 17 µM
[3]
  concentration at 24 h: 1880 nM
[4]
  AUC at 24 h: 45 µM·h
[5]
  IC50: 41.6 µM
[6]
  Ratio: 0.045
[7]
  Ratio: 0.11
[8]
  IC50: > 133 µM

## Cc1ccc(NC(=O)c2ccc(CN3CCN(C)CC3)cc2)cc1Nc1nccc(-c2cccnc2)n1 [IMATINIB]
[9]
  AUC at 24 h: 106 µM·h
[10]
  concentration at 24 h: 4.41 µM
[2]
  IC50: > 133 µM
[5]
  IC50: > 133 µM
[8]
  IC50: > 133 µM

## CC(=O)O[C@@]12CO[C@@H]1C[C@H](O)[C@@]1(C)C(=O)[C@H](O)C3=C(C)[C@@H](OC(=O)[C@H](O)[C@@H](NC(=O)OC(C)(C)C)c4ccccc4)C[C@@](O)([C@@H](OC(=O)c4ccccc4)[C@H]21)C3(C)C [DOCETAXEL ANHYDROUS]
[11]
  Ratio: 0.16
[2]
  IC50: > 133 µM
[12]
  concentration at 1 h: 6.52 µM
[5]
  IC50: > 133 µM
[13]
  AUC at 1 h: 6.51 µM·h
Bile salt export pump
  IC50: 41 µM
[8]
  IC50: > 133 µM

## CCc1nn(CCCN2CCN(c3cccc(Cl)c3)CC2)c(=O)n1CCOc1ccccc1 [NEFAZODONE]
[14]
  concentration at 24 h: 604 nM
[2]
  IC50: 71 µM
[15]
  Ratio: 0.009
[16]
  Ratio: 0.099
[5]
  IC50: > 133 µM
[17]
  AUC at 24 h: 14.5 µM·h
[8]
  IC50: > 133 µM

## CC[C@H]1OC(=O)[C@H](C)C(=O)[C@H](C)[C@@H](O[C@@H]2O[C@H](C)C[C@H](N(C)C)[C@H]2O)[C@](C)(OC)C[C@@H](C)C(=O)[C@H](C)[C@H]2N(CCCCn3cnc(-c4cccnc4)c3)C(=O)O[C@]12C [TELITHROMYCIN]
[2]
  IC50: 7.1 µM
[18]
  Ratio: 0.136
[19]
  Ratio: 0.193
[5]
  IC50: > 133 µM
[20]
  AUC at 12 h: 11.6 µM·h
Bile salt export pump
  IC50: 5 µM
[8]
  IC50: > 133 µM
[21]
  concentration at 12 h: 964 nM
